Experimental findings from patent publication US20260027380A1, “TECHNIQUES FOR MAGNETIC NANOCLUSTER-BASED COMBINATION THERAPY” (William Marsh Rice University, priority 2022, published 2026) are described below.

Molecules are shown by their SMILES.

The test system of the experiment is MC-38 cells. In words: Detection of DNA damage (γ-H2AX staining). The format is cell-based, murine. Particulars: without AMF. The method, then:
Hyperthermia treatment may induce lipid peroxidation, DNA damage, protein denaturation, and cell organelle disruption. In addition, carbon-centered free radicals generated from AAPH are highly reactive and can damage lipid, DNA, protein, and other biomolecules, leading to cell death. Thus, to understand the cell-killing mechanisms of IONC-AAPH under AMF, the effects of IONC-AAPH on various cellular components, including DNA, F-actin, mitochondria, gluthathione (GSH), and lipids, were evaluated. γ-H2AX is a sensitive marker of DNA damage and has been extensively used in research and clinical studies. It forms foci around the site of DNA double-strand break (DSB).
FIG. 7 depicts the quantification of γ-H2AX expression based on fluorescence intensity.
Detection of DNA damage: The DNA damage induced by IONC-AAPH treatment was detected by γ-H2AX staining. MC-38 cells were seeded in 4-compartment cell culture dishes and cultured overnight. Then the cells were treated with 300 μg Fe/mL of IONC-AAPH or IONC at 37° C. or under AMF for 90 min. Four hours after the treatment, the cells were fixed with 4% paraformaldehyde for 20 min, permeabilized with 0.2% Triton X-100 for 20 min and blocked with 3% bovine serum albumin (BSA) for 30 min at room temperature. […] The cells were imaged with a Nikon A1-Rsi confocal microscope and the fluorescence intensity of γ-H2AX was analyzed with ImageJ software.

As to `CC(C)(N=NC(C)(C)C(=N)N)C(=N)N.Cl.Cl` [AAPH, 2,2′-azobis(2-amidinopropane) dihydrochloride], the “γ-H2AX foci (DNA damage)” value was “low numbers of γ-H2AX foci”.
